Test results as given in ChEMBL document CHEMBL1201862, “PubChem BioAssay data set” (2004).
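The compound was tested at five concentrations on cells cultured in 96-well plates, with a 48-hour exposure period. GI50 is the concentration that inhibits growth by half.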 Active and inactive are the calls of the source. Cut-off read from the data, not from the text of the source: active = GI50 up to about 1.1 µM and inactive = higher.

What was measured:
Experiment in all cases: NCI-60 cell line screen, 48 h
DMS-114 = test system: DMS-114
M19-MEL = test system: M19-MEL
HOP-18 = test system: HOP-18
RXF 631 = test system: RXF 631
DMS-273 = test system: DMS-273
XF498 = test system: XF498
KM-20L2 = test system: KM-20L2
DLD-1 = test system: DLD-1
SNB-78 = test system: SNB-78

Measured: GI50

CCOC(=O)C(=O)Nc1c(C)cccc1C(C)C
inactive: DMS-114 > 100 µM | M19-MEL > 100 µM | HOP-18 > 100 µM | RXF 631 > 100 µM | DMS-273 > 100 µM | XF498 > 100 µM | KM-20L2 > 100 µM | DLD-1 > 100 µM | SNB-78 > 100 µM

COc1ccc2c(c1)[n+]([O-])c(-c1ccc(Br)cc1)c(N)[n+]2[O-]
inactive: DMS-114 23.1 µM | M19-MEL 44.3 µM | HOP-18 > 100 µM | DMS-273 24.1 µM | XF498 68.4 µM | KM-20L2 34.5 µM | DLD-1 44.6 µM | SNB-78 54.6 µM

CC(=O)NC(ON1C(=O)COc2ccccc21)C(Cl)(Cl)Cl (stereo unspecified)
inactive: DMS-273 > 100 µM | XF498 > 100 µM | KM-20L2 > 100 µM | DLD-1 > 100 µM | SNB-78 > 100 µM

C=CCN(N=O)C(=O)N(CCC)CCCC(NC(C)=O)C(=O)NCc1ccccc1 (stereo unspecified)
inactive: DMS-114 > 100 µM | M19-MEL > 100 µM | HOP-18 > 100 µM | RXF 631 > 100 µM | DMS-273 > 100 µM | XF498 > 100 µM | KM-20L2 > 100 µM

Cc1ccccc1NC(=O)Cc1nc2ccccc2s1
inactive: HOP-18 1.72 µM | RXF 631 16 µM | DMS-273 17.6 µM | XF498 14.5 µM | KM-20L2 18.4 µM | DLD-1 7.08 µM | SNB-78 18.6 µM

[Zn+2][N+]12CCN3CCN4CCN(CC1)[PH]432 (stereo unspecified)
inactive: DMS-114 > 100 µM | M19-MEL > 100 µM | HOP-18 > 100 µM | DMS-273 > 100 µM | KM-20L2 > 100 µM | DLD-1 > 100 µM | SNB-78 > 100 µM

CCOc1ccc(NC(=O)CCC(=O)NN)cc1
inactive: DMS-114 > 100 µM | HOP-18 > 100 µM | DMS-273 > 100 µM | XF498 31.7 µM | KM-20L2 > 100 µM | DLD-1 > 100 µM | SNB-78 > 100 µM

CC1CC(c2ccccc2)=Nc2ccccc2S1(=O)=O (stereo unspecified)
inactive: DMS-114 20.9 µM | M19-MEL 14.9 µM | HOP-18 13.9 µM | RXF 631 > 10 µM | DMS-273 20.1 µM | XF498 18.6 µM | KM-20L2 17.8 µM | DLD-1 15.1 µM | SNB-78 15 µM

O=C(/C=C1/NC(=O)CS1)Nc1ccccc1
inactive: DMS-114 > 100 µM | M19-MEL > 100 µM | HOP-18 > 100 µM | RXF 631 > 100 µM | DMS-273 > 100 µM | XF498 > 100 µM | KM-20L2 > 100 µM | DLD-1 > 100 µM | SNB-78 > 100 µM

CN(C)CCNC(=O)c1ccccc1Nc1c(Cl)cccc1Cl
inactive: M19-MEL 11.1 µM | DMS-273 16.9 µM | XF498 9.66 µM | KM-20L2 10.9 µM | DLD-1 18.2 µM | SNB-78 16.4 µM

COc1ccc(NC(=O)NS(=O)(=O)c2ccc(C)cc2)nn1
inactive: DMS-114 > 100 µM | M19-MEL > 100 µM | HOP-18 > 100 µM | RXF 631 > 100 µM | DMS-273 > 100 µM | XF498 > 100 µM | KM-20L2 > 100 µM | DLD-1 > 100 µM | SNB-78 > 100 µM

COc1ccc(C(C#N)NNC(=O)Cc2ccccc2)cc1OC (stereo unspecified)
inactive: DMS-114 > 100 µM | M19-MEL > 100 µM | HOP-18 > 100 µM | DMS-273 > 100 µM | DLD-1 > 100 µM | SNB-78 > 100 µM

Cc1cc2c(c(C(=O)O)c1C)-c1cccc(Cl)c1C2=O
inactive: DMS-114 > 100 µM | M19-MEL > 100 µM | DMS-273 > 100 µM | XF498 > 100 µM | KM-20L2 > 100 µM | DLD-1 > 100 µM | SNB-78 > 100 µM

C=CCN(N=O)C(=O)N(CCCC(NC(C)=O)C(=O)NCc1ccccc1)Cc1ccccc1 (stereo unspecified)
inactive: DMS-114 36.9 µM | M19-MEL 44.4 µM | RXF 631 47.2 µM | DMS-273 95.7 µM | XF498 36.3 µM | KM-20L2 42.2 µM

Cc1ccc(S(=O)(=O)SCc2ccccc2)cc1
inactive: DMS-114 22.2 µM | M19-MEL 33.7 µM | HOP-18 > 80.4 µM | DMS-273 28.1 µM | XF498 35.5 µM | KM-20L2 22.9 µM | DLD-1 5.31 µM | SNB-78 18.5 µM

CC1(C)OC(COCCOCCCCCO)C(COCCOCCCCCO)O1 (stereo unspecified)
inactive: DMS-114 > 100 µM | M19-MEL > 100 µM | HOP-18 > 100 µM | RXF 631 > 100 µM | DMS-273 > 100 µM | KM-20L2 > 100 µM | DLD-1 > 100 µM | SNB-78 > 100 µM

COC(=O)/C(=N/NC(=O)C[N+](C)(C)C)C(C(=O)OC)C(=O)C(=O)Nc1ccc(F)cc1 (stereo unspecified)
inactive: DMS-114 > 100 µM | M19-MEL > 100 µM | HOP-18 > 100 µM | RXF 631 > 100 µM | DMS-273 > 100 µM | KM-20L2 > 100 µM | DLD-1 > 100 µM | SNB-78 > 100 µM

CCN(CC)c1ccc(/N=C2/C=CC(=C(C#N)C#N)c3ccccc32)c(C)c1
inactive: M19-MEL 1.94 µM | HOP-18 2.32 µM | DMS-273 1.85 µM | XF498 1.44 µM | KM-20L2 1.95 µM | DLD-1 2.44 µM | SNB-78 1.63 µM

COc1ccccc1NC(=O)CC(=O)NNCC(=O)Nc1nnc(-c2ccccc2)o1
inactive: DMS-114 > 100 µM | M19-MEL > 100 µM | RXF 631 > 100 µM | DMS-273 > 100 µM | XF498 > 100 µM | KM-20L2 > 100 µM | DLD-1 > 100 µM | SNB-78 > 100 µM

COC(=O)c1ccc(C(=O)OC)c2nc3cc(C)ccc3nc12
inactive: DMS-114 > 100 µM | HOP-18 > 100 µM | RXF 631 > 100 µM | DMS-273 > 100 µM | XF498 > 100 µM | KM-20L2 > 100 µM | DLD-1 > 100 µM | SNB-78 > 100 µM

C[C@]12CCC[C@H](OC=O)C1(O)C[C@H](C(=O)O)CC2 (stereo partly specified)
inactive: DMS-114 > 100 µM | M19-MEL > 100 µM | HOP-18 > 100 µM | RXF 631 > 100 µM | DMS-273 > 100 µM | XF498 > 100 µM | KM-20L2 19 µM | DLD-1 > 100 µM | SNB-78 > 100 µM

Cc1cc(Cl)ccc1NC(=O)CCCC(=O)C1CCC/C1=N\NC(=O)CC#N (stereo unspecified)
inactive: DMS-114 > 100 µM | M19-MEL > 100 µM | HOP-18 17.2 µM | RXF 631 > 100 µM | DMS-273 > 100 µM | XF498 > 100 µM | KM-20L2 > 100 µM | DLD-1 > 100 µM | SNB-78 > 100 µM

O=C(O)CNCc1c2ccccc2nc2ccccc12
inactive: DMS-114 20.7 µM | M19-MEL 54.7 µM | HOP-18 > 100 µM | DMS-273 40.2 µM | XF498 28.8 µM | KM-20L2 29.3 µM | DLD-1 33.3 µM | SNB-78 54 µM

COC(=O)/C(=N\NC(N)=O)C(C(=O)C=C(C)C)C(=O)C(=O)Nc1ccc(Cl)c(Cl)c1 (stereo unspecified)
inactive: DMS-114 > 100 µM | M19-MEL > 100 µM | HOP-18 > 100 µM | RXF 631 > 100 µM | DMS-273 > 100 µM | XF498 > 100 µM | KM-20L2 > 100 µM | DLD-1 > 100 µM | SNB-78 > 100 µM

Nc1ccc(C(=O)N/C(=C\c2cccc([N+](=O)[O-])c2)c2nc3cc(Cl)ccc3[nH]2)cc1
inactive: DMS-114 > 100 µM | M19-MEL > 100 µM | RXF 631 63 µM | XF498 43.1 µM | KM-20L2 17 µM | DLD-1 > 100 µM | SNB-78 > 100 µM
